Laboratory results published in US9072729B2, “Method for treating fibrosis and cancer with imidazolium and imidazolinium compounds” (Agency for Science, Technology and Research, priority 2008, dated 2015).

Columns and labels:
[1] = test system: primary HSCs; assay: Protection of primary HSCs from DMSO cytotoxicity; assay type: cell-based, Wistar rat; conditions: DBZIM 100 μM, TDBZIM 50 μM
Description: FIG. 5. DBZIM and TDBZIM protected primary HSC cells against oxidative stress induced by 0.2% (v/v) of DMSO. (a) Optical images of cells treated with IMSs for 26 and 93 h. Scale bar=60 μm. 0.2% (v/v) of DMSO induced oxidative stress by depleting the total GSH level (b), inducing the GSSG level (c), reducing the GSH/GSSG ratio (d), and inducing GPX (e), CAT (f) and SOD (g) activity levels. The data were presented as mean and SEM, N=6, *^cP<0.005, and *^dP<0.0005; when compared to the untreated sample.
The isolation of primary HSCs from Wistar rat liver was performed primarily following the method provided in a previous report (Weiskirchen et al. 2005). Briefly, the supernatant of cell suspension after hepatocyte removal was washed and re-suspended in 9.5 ml of Gey's balance salt solution (GBSS), and mixed with 8 ml of 28.7% (w/v) Histodenz in GBSS. The gradient was prepared by laying the cell suspension underneath 6 ml of GBSS, and centrifuged in Histodenz gradient at 1400×g for 20 min. The stellate cells were separated into a fuzzy band just above the interface of the Histodenz solution and the aqueous buffer. The stellate cell band was harvested, washed, and 1×10^6 cells/well were seeded in a 6-well culture plate in Dulbecco modified Eagle's medium (DMEM) supplemented with 10% fetal bovine serum (FBS). The viability of the HSCs was >95% as determined by trypan blue exclusion staining, and the purity of the HSCs was >90% as assessed by glial fibrillary acidic protein (GFAP) positive staining in >200 cells counted. Primary HSCs were routinely cultured in DMEM with 10% FBS in a humidified CO2 incubator at 37° C., and split at 1:4 ratio by trypsinization (0.05% trypsin/0.53 mM ethylenediaminetetraacetic acid (EDTA)) when they grew to confluency. The HSC-T6 cell line was kindly provided by Dr. Scott Friedman of Mount Sinai School of Medicine, New York. A stable T6/GFAP-LacZ clonal cell line was established as previously reported (Maubach et al. 2006). HSC-T6 and T6/GFAP-LacZ cells were cultured in the same conditions as the primary HSCs.

[2] = test system: HLE cells; assay: Apoptosis assay (Annexin V-FITC/PI flow cytometry); assay type: cell-based, human; conditions: 72 h, IBN-15 60 μM, IBN-19 90 μM, IBN-24 90 μM, IBN-25 30 μM, IBN-32 20 μM, DMSO 0.045%
Description: FIG. 36. IMSs induce apoptosis in Hepatocarcinoma cells. A) Cells were treated with vehicle and IBN 15, IBN 19, IBM 24, IBN 25 and IBN 32 for 72 h, and apoptosis was quantified using Annexin V-FITC/PI staining followed by flow cytometric analysis. 10,000 cells were detected for every sample. Living cells are in the bottom left quadrants (FITC− and PI−), early apoptotic cells in the bottom right quadrants (FITC+ and PI−), and late apoptotic cells in the upper right quadrants (apoptotic FITC+ and PI+). B) The percentage of apoptotic cells with respect to different IMSs.
To determine apoptosis analysis, 4×10^5 cells were plated in 10 cm dish. […] The floating and trypsinized adherent cells were collected and the apoptosis was quantified using Annexin V-FITC reagent (BD Biosciences Pharmingen) and PI (Invitrogen) following the manufacturer's protocol. Briefly, the cells were washed twice with cold PBS and then resuspend cell in 100 μl of × binding buffer containing a 10 μl of Annexin V-FITC (BD-Pharminagen) and 2 μl of PI from the stock of 100 μg/ml. The cells were gently vortexed and incubated for 15 min at room temperature in the dark. Subsequently 400 μl of 1× binding buffer were added to each tube, and the samples were immediately analyzed by FACScan flow cytometer (Becton Dickinson). The fluorescent signals of the Annexin-V conjugate and PI were detected at channels of fluorescence intensity FL1 and FL2 (BD LSR II with software BD).
Cells undergoing apoptosis would stain positive for Annexin and negative for PI (quadrant 4, Q4). Cells which stained positive for both Annexin V-FITC and PI (Q2) are either at the end stage of apoptosis or undergoing necrosis, and those which stained negative for both Annexin V-FITC and PI (Q3) were alive or undergoing undetectable apoptosis. In contrast, cell debris stained only for PI (Q1).

[3] = test system: p53 signaling pathway-associated gene expression in HLE cells; assay: Real-time PCR array of p53 signaling pathway-associated genes; assay type: cell-based, human; conditions: 48 h; for increase of ATM gene expression vs control: IBN-19 90 uM, IBN-24 90 uM, IBN-25 40 uM
Description: FIG. 42. Real-Time PCR array analysis of p53 signaling pathway-associated gene expression. (A) Anti-apoptotic genes. (B) Growth inhibition gene SESN2. (C) Cell cycle check point genes. (D) Cell proliferation genes. (E) DNA repair gene ATM. The relative level of gene expression was normalized with housekeeping gene GAPDH. Values are expressed as mean±standard deviation.
Cells were seeded at a density of 4×10^5 cells per dish in 10 cm dishes. Next day, the cells were exposed to 90 uM of IBN-19, 90 uM of IBN-24, 40 uM of IBN-25 and 0.045% of DMSO (Dimethyl Sulphoxide) as the control. After 48 hrs, total RNAs were extracted from the cells using Nucleospin RNA II kit as per the manufacturer's istructions. RNA quality and yield were evaluated after spectrophotometer measurements.
The human apoptosis PCR array (RT^2 Profiler) was used to analyze mRNA levels of 84 key genes involved in apoptosis, in a 96-well format, according to the manufacturer's instructions (Super Array Bioscience). First-strand cDNA was synthesized with 1 μg of RNA by using a PCR array first strand-synthesis kit (C-03; Super array Bioscience). This kit uses reverse transcriptase (Power Script; Super array Bioscience) and a combination of random primers and oligo dT primers. The total volume of the reaction was 20 μL diluted to 100 μL. PCR reactions were performed using real-time PCR (79s00HT 96-well block with RT^2 Real-Time SYBR Green PCR master mix PA-012; Applied Biosystems Instruments 7500). The total volume of the PCR reaction was 25 μl. An equivalent of […] of RNA was applied to the PCR reaction. The thermocycler parameters were 95° C. for 10 minutes, followed by 40 cycles of 95° C. for 15 seconds and 60° C. for 1 minute. Relative changes in gene expression were calculated using the ΔΔCt (cycle threshold) method. An average of the number of cycles of the five housekeeping genes, GAPDH, Actin-β, β2m, Hprt1, and Rpl13d, was used to normalize the expression between samples. The expression data are presented as fold regulation. GAPDH gene expression levels were utilized as an internal control to normalize the data. Reported fold changes in expression are the ratios of treatment over control values.
To obtain more information on how the IMSs influence other gene expression in the HLE cells, 84 genes related to p53 signal transduction were profiled by using the RT^2 Profiler array (Super Array Bioscience) (FIG. 42A, B, C, D, E). The array includes keys genes relevant to p53, apoptosis, cell cycle, cell growth, proliferation, differentiation, and DNA repair.

| Compound | cell survival in 0.2% (v/v) DMSO ([1]; 26 h) | cell survival in 0.2% (v/v) DMSO ([1]; over 93 h) | cell apoptosis (Q2) [2] | SESN2 gene expression [3] | increase of ATM gene expression vs control [3] | anti-apoptotic gene BCl-2 expression [3] | cell proliferation genes (Mcl1, Egr1, Foxo3, Jun, Mdm4, Nf1, Prm1D, Sesn1, E2f11, Prkca, Brca1) [3] |
| --- | --- | --- | --- | --- | --- | --- | --- |
| 1,3,5-tris(4-methyl-imidazolium)-linked cyclophane.3Br [TDBZIM] | survived | remained viable and proliferated to confluency | – | – | – | – | – |
| [Br-].c1ccc(Cn2cc[n+](Cc3ccccc3)c2)cc1 [DBZIM, 1,3-bisbenzylimidazolium bromide] | survived | most cells died | – | – | – | – | – |
| CC(=O)Oc1ccc(C[n+]2ccn(Cc3ccccc3)c2C)cc1.[Cl-] [IBN-19, 1-benzyl-3-(4-acetate-benzyl)-2-methyl-imidazolium chloride] | – | – | 29% | markedly induced | 36 folds | – | – |
| Cc1ccc(C[n+]2ccn(Cc3ccccc3)c2)cc1.[Cl-] [IBN-24, 1-benzyl-3-(4-methylbenzyl)-imidazolium chloride] | – | – | 29% | – | 4.6 folds | significantly down regulated | significantly down regulated |
